Reference: article PMC9889419 (Pharmacological Reports, 2022)
Counter-ions that a name gives are not always drawn.

What was measured:
Assay in all cases: Radioligand binding
[1] = target: 5-HT2A (Homo sapiens, UniProt P28223)
Procedure: (§1) Radioligand binding. Radioligand binding assays were performed at Eurofins CEREP (France). The results are expressed as a percent of control specific binding (measured specific binding*100/control specific binding) and as a percent inhibition of control specific binding (100-(measured specific binding*100)/control specific binding) obtained in the presence of the test compounds. The IC50 values (concentration causing a half-maximal inhibition of control specific binding) and Hill coefficients (nH) were determined by non-linear regression analysis of the competition curves generated with mean replicate values using Hill equation curve fitting (Y = D + [A-D]/[1 + (C/C50)^nH], where Y = specific binding, A = left asymptote of the curve, D = right asymptote of the curve, C = compound concentration, C50 = IC50, and nH = slope factor). This analysis was performed using software developed at Cerep (Hill software) and validated by comparison with data generated by the commercial software SigmaPlot® 4.0 for Windows® (© 1997 by SPSS Inc.). The inhibition constants (Ki) were calculated using the Cheng Prusoff equation (Ki = IC50/[1 + L/KD], where L = concentration of radioligand in the assay, and KD = affinity of the radioligand for the receptor). A scatchard plot is used to determine the Kd.

[2] = target: 5-HT2B (Homo sapiens, UniProt P41595)
Procedure: as §1

[3] = target: T1, 5-HT2C (Homo sapiens, UniProt P28335)
T1 sequence (P28335 33-458): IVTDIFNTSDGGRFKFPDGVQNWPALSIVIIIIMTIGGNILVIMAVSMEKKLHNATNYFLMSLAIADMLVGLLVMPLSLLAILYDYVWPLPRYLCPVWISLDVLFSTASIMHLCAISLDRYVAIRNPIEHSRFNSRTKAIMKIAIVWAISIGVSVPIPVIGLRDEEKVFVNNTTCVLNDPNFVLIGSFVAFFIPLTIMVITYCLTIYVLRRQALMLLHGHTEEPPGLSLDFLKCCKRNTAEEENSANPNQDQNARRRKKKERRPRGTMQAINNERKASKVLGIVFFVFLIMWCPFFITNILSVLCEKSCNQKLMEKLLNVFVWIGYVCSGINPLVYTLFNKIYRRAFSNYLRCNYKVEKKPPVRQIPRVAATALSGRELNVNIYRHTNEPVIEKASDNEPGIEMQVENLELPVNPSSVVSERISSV
Procedure: as §1

[4] = target: D2S (Homo sapiens, UniProt P14416)
Procedure: as §1

[5] = target: T2, M1 (Homo sapiens, UniProt P11229)
T2 sequence (P11229 1-460): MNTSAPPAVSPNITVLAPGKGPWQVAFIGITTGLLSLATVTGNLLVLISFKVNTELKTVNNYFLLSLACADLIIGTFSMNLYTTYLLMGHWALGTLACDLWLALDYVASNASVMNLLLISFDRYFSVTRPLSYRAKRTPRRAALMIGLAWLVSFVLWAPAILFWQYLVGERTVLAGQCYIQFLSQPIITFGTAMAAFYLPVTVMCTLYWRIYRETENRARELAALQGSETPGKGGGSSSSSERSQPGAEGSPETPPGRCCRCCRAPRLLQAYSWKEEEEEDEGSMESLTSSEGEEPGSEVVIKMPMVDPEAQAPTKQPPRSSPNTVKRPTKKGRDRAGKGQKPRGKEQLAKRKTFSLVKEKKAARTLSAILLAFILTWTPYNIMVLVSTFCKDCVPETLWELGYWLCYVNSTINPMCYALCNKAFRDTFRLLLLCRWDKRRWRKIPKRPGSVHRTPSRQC
Procedure: as §1

[6] = target: T3, M4 (Homo sapiens, UniProt P08173)
T3 sequence (P08173 1-479): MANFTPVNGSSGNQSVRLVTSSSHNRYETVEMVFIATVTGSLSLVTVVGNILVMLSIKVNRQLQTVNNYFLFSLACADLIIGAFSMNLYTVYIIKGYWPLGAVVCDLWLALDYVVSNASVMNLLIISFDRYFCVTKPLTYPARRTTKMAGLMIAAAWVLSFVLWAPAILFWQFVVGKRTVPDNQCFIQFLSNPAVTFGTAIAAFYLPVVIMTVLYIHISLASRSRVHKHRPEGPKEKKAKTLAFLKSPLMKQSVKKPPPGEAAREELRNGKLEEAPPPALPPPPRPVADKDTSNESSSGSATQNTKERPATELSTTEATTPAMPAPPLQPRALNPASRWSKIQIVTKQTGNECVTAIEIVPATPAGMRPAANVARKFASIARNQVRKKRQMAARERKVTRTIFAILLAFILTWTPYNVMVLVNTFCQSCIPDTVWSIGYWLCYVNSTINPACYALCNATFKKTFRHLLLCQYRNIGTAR
Procedure: as §1

[7] = target: dopamine transporter (Homo sapiens, UniProt Q01959)
Procedure: as §1

[8] = 0.1 μM, read-out: % of control specific binding
[9] = 1 μM, read-out: % of control specific binding
[10] = 3 μM, read-out: % of control specific binding
[11] = 10 μM, read-out: % of control specific binding
[12] = 100 μM, read-out: % of control specific binding

D2S, sequence (P14416 1-414 isoform P14416-2): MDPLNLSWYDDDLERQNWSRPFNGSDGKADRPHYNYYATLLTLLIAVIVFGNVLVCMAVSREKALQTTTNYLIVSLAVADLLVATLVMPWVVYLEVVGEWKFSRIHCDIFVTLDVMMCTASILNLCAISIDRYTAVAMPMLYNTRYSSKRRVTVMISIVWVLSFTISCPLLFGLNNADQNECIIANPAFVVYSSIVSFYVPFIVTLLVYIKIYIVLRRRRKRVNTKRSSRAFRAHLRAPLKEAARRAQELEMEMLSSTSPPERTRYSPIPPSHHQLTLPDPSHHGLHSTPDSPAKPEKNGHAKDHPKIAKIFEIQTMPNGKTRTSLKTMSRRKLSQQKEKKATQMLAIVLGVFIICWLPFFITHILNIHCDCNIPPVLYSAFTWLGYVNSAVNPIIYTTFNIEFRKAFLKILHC
5-HT2A, sequence (P28223 whole entry): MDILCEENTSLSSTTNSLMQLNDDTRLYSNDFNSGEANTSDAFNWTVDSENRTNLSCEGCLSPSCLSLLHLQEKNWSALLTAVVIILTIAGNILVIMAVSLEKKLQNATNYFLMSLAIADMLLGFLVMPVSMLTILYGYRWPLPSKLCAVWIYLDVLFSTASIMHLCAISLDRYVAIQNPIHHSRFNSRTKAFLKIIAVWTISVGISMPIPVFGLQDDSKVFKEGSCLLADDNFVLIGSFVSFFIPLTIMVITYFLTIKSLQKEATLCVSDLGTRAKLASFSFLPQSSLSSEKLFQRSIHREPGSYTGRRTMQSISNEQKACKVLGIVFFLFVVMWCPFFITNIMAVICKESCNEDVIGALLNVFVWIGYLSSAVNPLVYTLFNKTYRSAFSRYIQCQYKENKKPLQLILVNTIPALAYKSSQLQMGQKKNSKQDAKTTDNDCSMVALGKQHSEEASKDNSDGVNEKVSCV
dopamine transporter, sequence (Q01959 whole entry): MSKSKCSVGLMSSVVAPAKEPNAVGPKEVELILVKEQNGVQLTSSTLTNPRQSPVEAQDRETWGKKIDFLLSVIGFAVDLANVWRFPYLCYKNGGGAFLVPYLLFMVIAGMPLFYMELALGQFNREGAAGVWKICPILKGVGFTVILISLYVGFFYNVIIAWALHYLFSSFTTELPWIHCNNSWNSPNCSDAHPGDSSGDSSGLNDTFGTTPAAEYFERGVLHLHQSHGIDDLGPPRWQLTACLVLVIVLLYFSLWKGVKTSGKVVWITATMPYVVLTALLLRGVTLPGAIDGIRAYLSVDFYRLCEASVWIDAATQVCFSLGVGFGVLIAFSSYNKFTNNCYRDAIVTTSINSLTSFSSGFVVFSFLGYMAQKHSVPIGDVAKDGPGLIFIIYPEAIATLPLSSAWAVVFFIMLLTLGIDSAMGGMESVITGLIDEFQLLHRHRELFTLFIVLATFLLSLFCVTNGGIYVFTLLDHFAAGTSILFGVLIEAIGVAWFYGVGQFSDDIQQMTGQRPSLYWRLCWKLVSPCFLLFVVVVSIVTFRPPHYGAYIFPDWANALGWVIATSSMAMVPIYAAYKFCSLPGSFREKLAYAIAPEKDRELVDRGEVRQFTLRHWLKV
5-HT2B, sequence (P41595 whole entry): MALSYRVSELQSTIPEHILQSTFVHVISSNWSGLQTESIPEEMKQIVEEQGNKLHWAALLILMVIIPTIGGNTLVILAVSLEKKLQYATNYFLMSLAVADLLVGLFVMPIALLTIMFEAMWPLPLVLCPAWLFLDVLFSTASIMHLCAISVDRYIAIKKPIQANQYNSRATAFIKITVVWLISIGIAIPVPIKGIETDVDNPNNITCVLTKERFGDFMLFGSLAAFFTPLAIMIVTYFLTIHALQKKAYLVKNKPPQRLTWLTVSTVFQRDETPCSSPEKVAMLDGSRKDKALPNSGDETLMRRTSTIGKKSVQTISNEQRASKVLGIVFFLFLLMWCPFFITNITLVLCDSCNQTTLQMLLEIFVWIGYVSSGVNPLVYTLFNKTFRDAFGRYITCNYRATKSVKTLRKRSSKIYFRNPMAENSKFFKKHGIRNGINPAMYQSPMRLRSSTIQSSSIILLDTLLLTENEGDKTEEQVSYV

CCC(CO)NCCOc1c(C)cccc1Cl (centres unmarked) [Compound 4, R,S-2-((2-(2-chloro-6-methylphenoxy)ethyl)amino)butan-1-ol]
% of control specific binding ([1]; 100 μM): 37.1% | % of control specific binding ([2]; 100 μM): 2.3% | % of control specific binding ([3]; 100 μM): 44.6% | % of control specific binding ([4]; 100 μM): 33.3% | % of control specific binding ([5]; 100 μM): 46.7% | % of control specific binding ([6]; 100 μM): 30.5% | % of control specific binding ([7]; 100 μM): 29.6%

CCC(CO)NCCOc1c(C)cccc1Cl (centres unmarked) [KM-408, R,S-2-((2-(2-chloro-6-methylphenoxy)ethyl)amino)butan-1-ol hydrochloride]
IC50 [1]: 55 µM | Ki [1]: 30 µM | remaining activity at 0.1 µM [1, 8]: 104% | remaining activity at 1 µM [1, 9]: 95% | remaining activity at 3 µM [1, 10]: 94.1% | remaining activity at 10 µM [1, 11]: 85.1% | remaining activity at 100 µM [1, 12]: 36.9% | IC50 [2]: 2.4 µM | Ki [2]: 1.2 µM | remaining activity at 0.001 µM ([2]; 0.001 μM, read-out: % of control specific binding): 130% | remaining activity at 0.01 µM ([2]; 0.01 μM, read-out: % of control specific binding): 121% | remaining activity at 0.1 µM [2, 8]: 103% | remaining activity at 1 µM [2, 9]: 88% | remaining activity at 10 µM [2, 11]: 28.3% | IC50 [3]: 77 µM | Ki [3]: 26 µM | remaining activity at 0.1 µM [3, 8]: 95.6% | remaining activity at 1 µM [3, 9]: 87.1% | remaining activity at 3 µM [3, 10]: 95.2% | remaining activity at 10 µM [3, 11]: 82.4% | remaining activity at 100 µM [3, 12]: 40.6% | IC50 [4]: 100 µM | Ki [4]: 34 µM | remaining activity at 0.1 µM [4, 8]: 96.2% | remaining activity at 1 µM [4, 9]: 96.5% | remaining activity at 3 µM [4, 10]: 92.8% | remaining activity at 10 µM [4, 11]: 86% | remaining activity at 100 µM [4, 12]: 49.1% | IC50 [5]: 64 µM | Ki [5]: 55 µM | remaining activity at 0.1 µM [5, 8]: 114% | remaining activity at 1 µM [5, 9]: 108% | remaining activity at 3 µM [5, 10]: 123% | remaining activity at 10 µM [5, 11]: 99.7% | remaining activity at 100 µM [5, 12]: 43.1% | IC50 [6]: 24 µM | Ki [6]: 15 µM | remaining activity at 0.1 µM [6, 8]: 98% | remaining activity at 1 µM [6, 9]: 92% | remaining activity at 3 µM [6, 10]: 82.7% | remaining activity at 10 µM [6, 11]: 67% | remaining activity at 100 µM [6, 12]: 23.8% | IC50 [7]: 43 µM | Ki [7]: 23 µM | remaining activity at 0.1 µM [7, 8]: 93.9% | remaining activity at 1 µM [7, 9]: 87.8% | remaining activity at 3 µM [7, 10]: 94.4% | remaining activity at 10 µM [7, 11]: 72.6% | remaining activity at 100 µM [7, 12]: 29.6%
